According to patent publication US20220046923A1, “HERBICIDAL CINNOLINIUM COMPOUNDS” (SYNGENTA CROP PROTECTION AG, priority 2018, published 2022):

Assays:
Assay in all cases: Post-emergence efficacy, glasshouse spray test
Format in all cases: in vivo
[1] = tested on: Amaranthus palmeri (AMAPA); conditions: Amaranthus palmeri, post-emergence, 312 h; application rate 1000 g/Ha; evaluated after 13 days; read-out: Control of weed species AMAPA after post-emergence application (100=total damage to plant; 0=no damage to plant)
Experimental: (§1) Seeds of a variety of test species were sown in standard soil in pots. After cultivation for 14 days (post-emergence) under controlled conditions in a glasshouse (at 24/16° C., day/night; 14 hours light; 65% humidity), the plants were sprayed with an aqueous spray solution derived from the dissolution of the technical active ingredient formula (I) in a small amount of acetone and a special solvent and emulsifier mixture referred to as IF50 (11.12% Emulsogen EL360 TM+44.44% N-methylpyrrolidone+44.44% Dowanol DPM glycol ether), to create a 50 g/l solution which was then diluted to required concentration using 0.25% or 1% Empicol ESC70 (Sodium lauryl ether sulphate)+1% ammonium sulphate as diluent. The test plants were then grown in a glasshouse under controlled conditions (at 24/16° C., day/night; 14 hours light; 65% humidity) and watered twice daily. After 13 days the test was evaluated (100=total damage to plant; 0=no damage to plant).
(§2) Ipomoea hederacea (IPOHE), Euphorbia heterophylla (EPHHL), Chenopodium album (CHEAL), Amaranthus palmeri (AMAPA), Lolium perenne (LOLPE), Digitaria sanguinalis (DIGSA), Eleusine indica (ELEIN), Echinochloa crus-galli (ECHCG), Setaria faberi (SETFA)

[2] = tested on: Chenopodium album (CHEAL); conditions: Chenopodium album, post-emergence, 312 h, evaluated after 13 days, read-out: Control of weed species CHEAL after post-emergence application (100=total damage to plant; 0=no damage to plant); for pest or weed control at 1000 g/ha: application rate 1000 g/Ha; for pest or weed control at 500 g/ha: application rate 500 g/Ha
Experimental: as §1, §2

[3] = tested on: Digitaria sanguinalis (DIGSA); conditions: Digitaria sanguinalis, post-emergence, 312 h, evaluated after 13 days, read-out: Control of weed species DIGSA after post-emergence application (100=total damage to plant; 0=no damage to plant); for pest or weed control at 1000 g/ha: application rate 1000 g/Ha; for pest or weed control at 500 g/ha: application rate 500 g/Ha
Experimental: as §1, §2

[4] = tested on: Echinochloa crus-galli (ECHCG); conditions: Echinochloa crus-galli, post-emergence, 312 h, evaluated after 13 days, read-out: Control of weed species ECHCG after post-emergence application (100=total damage to plant; 0=no damage to plant); for pest or weed control at 1000 g/ha: application rate 1000 g/Ha; for pest or weed control at 500 g/ha: application rate 500 g/Ha
Experimental: as §1, §2

[5] = tested on: Eleusine indica (ELEIN); conditions: Eleusine indica, post-emergence, 312 h, evaluated after 13 days, read-out: Control of weed species ELEIN after post-emergence application (100=total damage to plant; 0=no damage to plant); for pest or weed control at 1000 g/ha: application rate 1000 g/Ha; for pest or weed control at 500 g/ha: application rate 500 g/Ha
Experimental: as §1, §2

[6] = tested on: Euphorbia heterophylla (EPHHL); conditions: Euphorbia heterophylla, post-emergence, 312 h, evaluated after 13 days, read-out: Control of weed species EPHHL after post-emergence application (100=total damage to plant; 0=no damage to plant); for pest or weed control at 1000 g/ha: application rate 1000 g/Ha; for pest or weed control at 500 g/ha: application rate 500 g/Ha
Experimental: as §1, §2

[7] = tested on: Ipomoea hederacea (IPOHE); conditions: Ipomoea hederacea, post-emergence, 312 h, evaluated after 13 days, read-out: Control of weed species IPOHE after post-emergence application (100=total damage to plant; 0=no damage to plant); for pest or weed control at 1000 g/ha: application rate 1000 g/Ha; for pest or weed control at 500 g/ha: application rate 500 g/Ha
Experimental: as §1, §2

[8] = tested on: Lolium perenne (LOLPE); conditions: Lolium perenne, post-emergence, 312 h, evaluated after 13 days, read-out: Control of weed species LOLPE after post-emergence application (100=total damage to plant; 0=no damage to plant); for pest or weed control at 1000 g/ha: application rate 1000 g/Ha; for pest or weed control at 500 g/ha: application rate 500 g/Ha
Experimental: as §1, §2

[9] = tested on: Setaria faberi (SETFA); conditions: Setaria faberi, post-emergence, 312 h, evaluated after 13 days, read-out: Control of weed species SETFA after post-emergence application (100=total damage to plant; 0=no damage to plant); for pest or weed control at 1000 g/ha: application rate 1000 g/Ha; for pest or weed control at 500 g/ha: application rate 500 g/Ha
Experimental: as §1, §2

Row | Compound | pest or weed control at 1000 g/ha [2] [%] | pest or weed control at 1000 g/ha [3] [%] | pest or weed control at 1000 g/ha [4] [%] | pest or weed control at 1000 g/ha [5] [%] | pest or weed control at 1000 g/ha [6] [%] | pest or weed control at 1000 g/ha [7] [%] | pest or weed control at 1000 g/ha [8] [%] | pest or weed control at 1000 g/ha [9] [%] | pest or weed control at 500 g/ha [2] [%] | pest or weed control at 500 g/ha [3] [%] | pest or weed control at 500 g/ha [4] [%] | pest or weed control at 500 g/ha [5] [%] | pest or weed control at 500 g/ha [6] [%] | pest or weed control at 500 g/ha [7] [%] | pest or weed control at 500 g/ha [8] [%] | pest or weed control at 500 g/ha [9] [%] | also measured
1 | O=S(=O)([O-])CC(O)C[n+]1ccc2ccccc2n1 (centres unmarked) [Compound A28] | 70 | 60 | 40 | 80 | 80 | 60 | 60 | 50 |  |  |  |  |  |  |  |  | pest or weed control at 1000 g/ha [1]: 90%
2 | O=S(=O)([O-])CC[n+]1ccc2cc(Br)ccc2n1 [Compound A34] | 20 | 40 | 40 | 30 | 40 | 20 | 10 | 20 |  |  |  |  |  |  |  |  | 
3 | Cc1ccc2n[n+](CCS(=O)(=O)[O-])cc(C)c2c1 [Compound A33] | 10 | 40 | 50 | 30 | 60 | 30 | 0 | 40 |  |  |  |  |  |  |  |  | 
4 | CN(C)C(=O)c1ccc2cc[n+](CCS(=O)(=O)[O-])nc2c1 [Compound A106] |  |  |  |  |  |  |  |  | 80 | 70 | 80 | 100 | 30 | 20 | 30 | 100 | 
5 | CN(C)C(=O)c1cccc2cc[n+](CCS(=O)(=O)[O-])nc12 [Compound A102, 2-[8-(dimethylcarbamoyl)cinnolin-2-ium-2-yl]ethanesulfonate] |  |  |  |  |  |  |  |  | 100 | 80 | 70 | 100 | 60 | 70 | 30 | 90 | 
6 | CC(=O)Nc1ccc2n[n+](CCS(=O)(=O)[O-])ccc2c1 [Compound A104] |  |  |  |  |  |  |  |  |  |  |  |  |  |  |  |  | pest or weed control at 125 g/ha ([2]; application rate 125 g/Ha): 30%; pest or weed control at 125 g/ha ([3]; application rate 125 g/Ha): 60%; pest or weed control at 125 g/ha ([4]; application rate 125 g/Ha): 60%; pest or weed control at 125 g/ha ([5]; application rate 125 g/Ha): 80%; pest or weed control at 125 g/ha ([6]; application rate 125 g/Ha): 50%; pest or weed control at 125 g/ha ([7]; application rate 125 g/Ha): 10%; pest or weed control at 125 g/ha ([8]; application rate 125 g/Ha): 20%; pest or weed control at 125 g/ha ([9]; application rate 125 g/Ha): 70%
7 | COC(=O)c1cccc(C[n+]2ccc3ccccc3n2)c1 [Compound A90] |  | 10 | 10 | 20 | 30 | 10 | 0 | 0 |  |  |  |  |  |  |  |  | pest or weed control at 1000 g/ha [1]: 20%
8 | CC(=O)Nc1ccc2cc[n+](CCS(=O)(=O)[O-])nc2c1 [Compound A105] |  |  |  |  |  |  |  |  | 70 | 60 | 50 | 80 | 30 | 20 | 20 | 70 | 
9 | Cc1c[n+](CCS(=O)(=O)[O-])nc2c(C)cccc12 [Compound A35] | 0 | 30 | 20 | 20 | 30 | 20 | 10 | 0 |  |  |  |  |  |  |  |  | 
10 | O=C(O)c1cccc(C[n+]2ccc3ccccc3n2)c1 [Compound A91] | 20 | 20 | 40 | 20 | 40 | 10 | 10 | 20 |  |  |  |  |  |  |  |  | 
11 | O=S(=O)(O)c1ccc(C[n+]2ccc3ccccc3n2)cc1 [Compound A92] | 0 | 20 | 30 | 30 | 50 | 40 | 10 | 10 |  |  |  |  |  |  |  |  | 
12 | CN(C)C(=O)c1ccc2n[n+](CCS(=O)(=O)[O-])ccc2c1 [Compound A101] |  |  |  |  |  |  |  |  | 60 | 70 | 60 | 80 | 70 | 40 | 20 | 70 | 
13 | Cc1cccc2cc[n+](CCS(=O)(=O)[O-])nc12 [Compound A36] |  | 80 | 70 | 90 | 30 | 30 | 20 | 40 |  |  |  |  |  |  |  |  | 
